The nature of this series: Adverse events during the observation period (12 hours after ticagrelor LD). It is filed as in vivo, human (patients with myocardial infarction). From the text: Between November 2015 and January 2017, a total of 73 consecutive AMI patients (49 STEMI and 24 NSTEMI) were enrolled. The recruitment continued until the minimum required number of patients were enrolled in the less numerous group (NSTEMI). There were no differences in the baseline characteristics between the two groups, except higher mean left ventricle ejection fraction seen in NSTEMI patients at discharge (Table 1). Of note, as expected numerically greater proportion of STEMI patients were treated with morphine, but this difference was statistically insignificant. Adverse events during the observation period (12 hours after ticagrelor LD) were sporadic and mild (STEMI vs. NSTEMI: Thrombolysis in Myocardial Infarction minimal bleeding 6.1% vs. 8.3%, p = 0.92; dyspnea 2.0% vs. 4.2%, p = 0.83; vomiting 4.1% vs. 4.2%, p = 0.56). […]
Ludwika Rydygiera w Bydgoszczy (study
PLATO trial, deﬁnite or probable stent thrombosis approval reference number: KB 617/2015). […]
Thrombolysis In Myocardial Infarction (TIMI) criteria, still being collected, currently no additional data are available besides given in dyspnoea adverse events according to criteria used in the submitted study protocol. […]
Postepy […]
trial is expected to be the ﬁrst study to elucidateKardiol Interwencyjnej 2015;11:259–80. whether STEMI is associated with poorer absorption and 8. Navarese EP, Buffon A, Kozinski M, et al. A critical overview on ticagrelor in acute coronary syndromes. QJM 2013;106:105–15. subsequently weaker antiplatelet action of ticagrelor in 9. Adamski P, Koziński M, Ostrowska M, et al. Overview of pleiotropic comparison with NSTEMI. effects of platelet P2Y12 receptor inhibitors. Thromb Haemost […]
1Department of Principles of Clinical Medicine, Collegium Medicum, Nicolaus Drug Metab Dispos 2010;38:1514–21.
Copernicus University, Bydgoszcz, Poland 11. Husted S, Emanuelsson H, Heptinstall S, et al. Pharmacodynamics, 2Department of Pharmacology and Therapy, Collegium Medicum, Nicolaus pharmacokinetics, and safety of the oral reversible P2Y12 antagonist AZD6140 with aspirin in patients with atherosclerosis: a double-blind
Copernicus University, Bydgoszcz, Poland comparison to clopidogrel with aspirin. Eur Heart J 3Department of Cardiology and Internal Medicine, Collegium Medicum, 2006;27:1038–47.
Nicolaus Copernicus University, Bydgoszcz, Poland 12. Varenhorst C, Eriksson N, Johansson Å, et al. Effect of genetic 4Department of Theoretical Foundations of Biomedical Science and Medical variations on ticagrelor plasma levels and clinical outcomes.
Informatics, Collegium Medicum, Nicolaus Copernicus University, Bydgoszcz, Eur Heart J 2015;36:1901–12.
Poland 13. Teng R, Mitchell P, Butler K. Effect of age and gender on 5Department of Laboratory Medicine, Collegium Medicum, Nicolaus pharmacokinetics and pharmacodynamics of a single ticagrelor dose in healthy individuals. Eur J Clin Pharmacol 2012;68:1175–82.
Copernicus University, Bydgoszcz, Poland 14. Teng R, Mitchell PD, Butler K. Lack of significant food effect on the 6Department of Medicinal Chemistry, Collegium Medicum, Nicolaus pharmacokinetics of ticagrelor in healthy volunteers. J Clin Pharm Copernicus University, Bydgoszcz, Poland Ther 2012;37:4648.– […]

Take `CCCSc1nc(N[C@@H]2C[C@H]2c2ccc(F)c(F)c2)c2nnn([C@@H]3C[C@H](OCCO)[C@@H](O)[C@H]3O)c2n1` [ticagrelor]: for the setting “NSTEMI patients”, the “Thrombolysis in Myocardial Infarction minimal bleeding” value is recorded as 8.3%, the dyspnea is reported as 4.2% and the vomiting is given as 4.2%. Further, for the setting “STEMI patients”, the “Thrombolysis in Myocardial Infarction minimal bleeding” value is 6.1%, the dyspnea is recorded as 2.0% and the vomiting came to 4.1%.
